“And” between values parts separate entries of the source, which are not always exact repeats. Equal values may be shown once.
Legend:
[1] = tested on: MYST KAT complexes (KAT7, KAT8, KAT5) in HeLa nuclear extracts; experiment: Competitive chemoproteomic profiling (H3K14-CoA affinity capture) of native MYST complexes; assay type: binding
Procedure: Proteins belonging to multiple KAT complexes are characterized by distinct competition profiles.
The beads were washed three times
during the bead coating step.
hours with end-over-end mixing.
After magnetic separation for 3 minutes,
conditions, and both eluates were combined.
Membranes were probed with antibodies

[2] = tested on: proteins captured by H3K14-CoA resin from HeLa nuclear extracts; experiment: Proteome-wide competitive chemoproteomic profiling (H3K14-CoA beads, TMT LC-MS/MS); assay type: binding; settings: for Log2FC PF9363-100nM / PF9363-0nM / Log2FC PF9363-1000nM / PF9363-0nM / Log2FC PF9363-10000nM / PF9363-0nM: H3K14-CoA beads, TMT
H3K9Ac (KAT2A/B) = experiment: Histone biomarker bottom-up LC-MS/MS, MCF-7; assay type: cell-based; settings: for Ratio, H3_9_17 K9ac: Replicates 1-3
H3K18Ac (KAT3A/B) = experiment: Histone biomarker bottom-up LC-MS/MS, MCF-7; assay type: cell-based; settings: for Ratio, H3_18_26 K18ac: Replicates 1-3
H4K16Ac (KAT8) = experiment: Histone acetylation biomarker western blot, MCF-7; assay type: cell-based; settings: MCF-7 cells, 24 h, up to 30 μM
Procedure: Target engagement was assessed using the panel of MYST-dependent histone acetylation biomarkers defined above. […] While WM-3835 has been applied to study KAT7, its initial publication alludes to its ability to inhibit both KAT6A/B and KAT7.[14], [43] […] All commercial vendors currently market WM-3835 as a KAT7 inhibitor.
General materials and methods
Total protein on western blots was […]
manufacturer's protocols.
KAT capture and competitive chemoproteomic profiling […]
for 2 hours, then lyophilized.
12 μL triethylamine. […] The beads were then magnetically separated […]
distinguish between tightly grouped and diffuse clusters, compactness was quantified by calculating the average pairwise Euclidean distance between all points within each cluster. Clusters with lower average

NCI-60 cell line panel = experiment: NCI-60 cell line screen, sulforhodamine B growth inhibition; assay type: cell-based, human; settings: 48 h
BT-549 cells [3] = experiment: as above; assay type: cell-based, human; settings: BT-549, 10 and 100 μM, 48 h
Excerpt: As a comparator we used growth inhibition caused by treatment of cells with CPI-1612,[45], [46] a potent inhibitor of the EP300/CREBBP (KAT3A/B), widely regarded as the master regulator of protein acetylation.
(§1) Figure 6. […] (C) Dependence of breast cancer cell lines on non-MYST KATs (EP300, CREBBP), MYST KATs (KAT6A, KAT6B, KAT7, KAT8, KAT5), and a MYST KAT complex member (BRPF1) derived from on DepMap CRISPR screening data. BT-549 is highlighted in orange. Lower CERES score indicates a greater dependence of the cell line on the specified gene. […] Data is representiative of n=2 biological replicates.
(§2) (0.01, 0.1, 1, 10, 100 μM) for 48 hours and analyzed by sulforhodamine B assay for growth inhibition as previously described.12-14 o validate the NCI-60 relative activity trends using an orthogonal method, we […]
(§3) 0.94, 0.47, 0.23, 0 μM) for 96 hours. Experiments were performed in quadruplicate, and cell viability was measured using CellTiter-Glo® Luminescent Cell Viability Assay (Promega, G7572) according to the manufacturer's instructions. Luminescence signals were recorded on a BioTek Synergy 2 plate reader, and results were normalized to vehicle-treated controls (set to 100%). Half-maximal inhibition values (IC₅₀) were determined from nonlinear regression analysis of dose-response curves using GraphPad Prism 9. […]

BT-549 cells [4] = experiment: ATP-based viability assay (CellTiter-Glo); assay type: cell-based; settings: Homo sapiens; BT-549, ATP-Glo assay, 72 h, n=4
Excerpt: as §1
Analysis of DepMap-derived CRISPR screening data supports the notion that while breast cancer models vary widely in their requirement for EP300 and CREBBP, BT-549 appears to a fairly independent line. […]
as §2, §3

KAT7 = KAT7 (Homo sapiens, UniProt O95251); experiment: Competitive chemoproteomic profiling (H3K14-CoA affinity capture, western blot and LC-MS/MS); settings: 0.1 μM, HeLa nuclear extracts
[5] = MCF-7 cells, 24 h, any concentration (0.1-30 μM)

KAT7, sequence (O95251 whole entry): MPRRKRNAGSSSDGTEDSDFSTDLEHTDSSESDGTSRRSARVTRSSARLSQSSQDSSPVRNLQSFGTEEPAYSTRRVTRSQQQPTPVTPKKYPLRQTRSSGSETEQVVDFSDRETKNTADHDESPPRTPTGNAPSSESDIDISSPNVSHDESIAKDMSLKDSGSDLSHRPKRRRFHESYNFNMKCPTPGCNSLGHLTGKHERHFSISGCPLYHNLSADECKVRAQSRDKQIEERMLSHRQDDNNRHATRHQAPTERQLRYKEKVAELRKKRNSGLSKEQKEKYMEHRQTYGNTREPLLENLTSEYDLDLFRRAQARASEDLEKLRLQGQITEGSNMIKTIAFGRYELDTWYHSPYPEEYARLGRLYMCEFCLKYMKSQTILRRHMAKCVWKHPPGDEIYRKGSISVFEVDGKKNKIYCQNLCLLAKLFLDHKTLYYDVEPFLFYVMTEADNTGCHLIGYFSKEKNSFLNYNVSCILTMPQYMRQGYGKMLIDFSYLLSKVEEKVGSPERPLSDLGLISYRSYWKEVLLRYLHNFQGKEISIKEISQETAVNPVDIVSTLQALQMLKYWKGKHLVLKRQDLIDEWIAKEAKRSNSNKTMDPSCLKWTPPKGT

In the case of COc1cccc(OC)c1S(=O)(=O)Nc1noc2cc(Cn3cccn3)cc(OC)c12 [PF-9363], the “competition of capture of KAT8-containing MSL and NSL complexes and KAT5-containing NuA4 complex” value ([1]; 1 and 10 μM, HeLa nuclear extracts) was “competed capture of all CORUM-annotated members”, the “sensitivity of KAT complexes, general order” value ([1]; HeLa nuclear extracts, chemoproteomic competition) was “KAT7 > KAT8 > KAT5” and the “hierarchical inhibition order of native KAT complexes” value ([1]; chemoproteomic profiling and histone acetylation biomarkers) was “KAT6A/B > KAT7 >> KAT8 > KAT5”. The “competition of capture of NAT10, ESCO1, KAT2B (other clusters)” value ([2]; 0, 0.1, 1, 10 μM) was “relatively insensitive”, the “Log2FC PF9363-100nM / PF9363-0nM” value ([2]; protein BLM (P54132)) was 0.02 and the “Log2FC PF9363-1000nM / PF9363-0nM” value ([2]; protein BLM (P54132)) was 0.03. The “Log2FC PF9363-10000nM / PF9363-0nM” value ([2]; protein BLM (P54132)) was 0.05, the “concentration at which BRPF3 capture is competed” value ([2]; protein BRPF3) was 10 µM and the “Log2FC PF9363-100nM / PF9363-0nM” value ([2]; protein MKI67 (P46013)) was -0.01. The “Log2FC PF9363-1000nM / PF9363-0nM” value ([2]; protein MKI67 (P46013)) was -0.01, the “Log2FC PF9363-10000nM / PF9363-0nM” value ([2]; protein MKI67 (P46013)) was 0.02 and the “Log2FC PF9363-100nM / PF9363-0nM” value ([2]; protein NUMA1 (Q14980)) was 0.02. The “Log2FC PF9363-1000nM / PF9363-0nM” value ([2]; protein NUMA1 (Q14980)) was 0.05, the “Log2FC PF9363-10000nM / PF9363-0nM” value ([2]; protein NUMA1 (Q14980)) was 0.06 and the “Log2FC PF9363-100nM / PF9363-0nM” value ([2]; protein TRRAP (Q9Y4A5)) was -0.05. The “Log2FC PF9363-1000nM / PF9363-0nM” value ([2]; protein TRRAP (Q9Y4A5)) was -0.12, the “Log2FC PF9363-10000nM / PF9363-0nM” value ([2]; protein TRRAP (Q9Y4A5)) was -0.22 and the “Fold-change 0.1 v 30, H3_9_17 K9ac” value (H3K9Ac (KAT2A/B); KAT marker KAT2A/B, PF-9363 0.1 v 30) was 1.55. For the same compound, the “Average ratio, H3_9_17 K9ac” value (H3K9Ac (KAT2A/B); KAT marker KAT2A/B, PF-9363 (30 μM)) was 0.0036, the “Average ratio, H3_9_17 K9ac” value (H3K9Ac (KAT2A/B); KAT marker KAT2A/B, PF-9363 (0.1 mM)) was 0.0056 and the “Ratio, H3_9_17 K9ac” value (H3K9Ac (KAT2A/B); KAT marker KAT2A/B, dose 0.1) was 0.007813 and 0.000147 and 0.0089. The “Ratio, H3_9_17 K9ac” value (H3K9Ac (KAT2A/B); KAT marker KAT2A/B, dose 1) was 0.005499 and 0.002205 and 0.005001, the “Ratio, H3_9_17 K9ac” value (H3K9Ac (KAT2A/B); KAT marker KAT2A/B, dose 10) was 0.000496 and 0.002771 and 0.002815 and the “Ratio, H3_9_17 K9ac” value (H3K9Ac (KAT2A/B); KAT marker KAT2A/B, dose 30) was 0.004671 and 0.003182 and 0.003055. For the same compound, the “modulation of H3K9Ac” value (H3K9Ac (KAT2A/B); [5]) was “not found to modulate”, the “Fold-change 0.1 v 30, H3_18_26 K18ac” value (H3K18Ac (KAT3A/B); KAT marker KAT3A/B, PF-9363 0.1 v 30) was 1.39 and the “Average ratio, H3_18_26 K18ac” value (H3K18Ac (KAT3A/B); KAT marker KAT3A/B, PF-9363 (0.1 mM)) was 0.0171. The “Average ratio, H3_18_26 K18ac” value (H3K18Ac (KAT3A/B); KAT marker KAT3A/B, PF-9363 (30 mM)) was 0.0123, the “Ratio, H3_18_26 K18ac” value (H3K18Ac (KAT3A/B); KAT marker KAT3A/B, dose 0.1) was 0.01666 and 0.01829 and 0.01641 and the “Ratio, H3_18_26 K18ac” value (H3K18Ac (KAT3A/B); KAT marker KAT3A/B, dose 1) was 0.01874 and 0.01672 and 0.01619. The “Ratio, H3_18_26 K18ac” value (H3K18Ac (KAT3A/B); KAT marker KAT3A/B, dose 10) was 0.01831 and 0 and 0.01771, the “Ratio, H3_18_26 K18ac” value (H3K18Ac (KAT3A/B); KAT marker KAT3A/B, dose 30) was 0 and 0.0193 and 0.01765 and the “modulation of H3K18Ac” value (H3K18Ac (KAT3A/B); [5]) was “not found to modulate”. For the same compound, the “inhibition of KAT8 (H4K16Ac)” value (H4K16Ac (KAT8)) was “able to inhibit KAT8-catalyzed H4K16Ac”, the GI50 (NCI-60 cell line panel; Homo sapiens, most cell lines of the NCI-60 panel, read-out: half-maximal growth inhibition (GI50)) was 10 to 100 µM and the “tolerance of concentrations expected to primarily effect KAT6 and KAT7” value (NCI-60 cell line panel; ≤ 1 μM) was “generally well-tolerated”. The “growth inhibition compared with CPI-1612” value (BT-549 cells [3]) was “greater growth inhibition”, the GI50 (BT-549 cells [4]) was about 7 µM and the “co-competition of KAT7 JADE complex members” value (KAT7) was “caused co-competition of JADE2, MEAF6, and ING4/5”.
